{"source": "patent US20130028955A1", "about": "“SUSTAINED RELEASE ORAL MATRIX AND METHODS OF MAKING THEREOF” (priority 2011, published 2013)", "assay": "Dissolution, USP basket apparatus 1, simulated intestinal fluid pH 6.8", "type": "physicochemical", "settings": "for drug release 0.5 h / drug release 1 h / drug release 2 h / drug release 4 h / drug release 8 h / drug release 12 h / drug release 24 h: Table 7, Example VII combination tablet; for drug release 0 h: Table 7, Example VII tablet: 20% silicone PSA, 8.7% tramadol HCl, 71.7% acetaminophen", "procedure": "The release rate of these formulations were carried out using USP dissolution basket apparatus 1 (Vankel, Inc) using about 100 rpm stirring speed at about 37 C in about 900 ml of the dissolution medium. The dissolution medium used was simulated intestinal fluid with a pH of about 6.8. At predetermined time intervals, 1 ml of sample was withdrawn and was analyzed to determine acetaminophen concentration. Concentration of acetaminophen in the dissolution medium was determined using a HPLC method. A C8 column was used using mobile phase of 65% methanol and 35% water. Flow rate was 1 ml/min and the UV detection wavelength was 254 nm. The results are reported as average of six tablets. […] Total weight of each tablet was 500 mg. The diameters of the tablets were 13 mm.", "note": "Where a name gives a salt, the structure may show the parent alone.", "data": [{"compound": "CC(=O)Nc1ccc(O)cc1", "note": "[APAP, acetaminophen]", "values": [{"measurement": "drug release 0.5 h", "value": 13.5}, {"measurement": "drug release 1 h", "value": 22.6}, {"measurement": "drug release 2 h", "value": 31.9}, {"measurement": "drug release 4 h", "value": 44.8}, {"measurement": "drug release 8 h", "value": 61.1}, {"measurement": "drug release 12 h", "value": 74.3}, {"measurement": "drug release 24 h", "value": 86.0}, {"measurement": "drug release 0 h", "value": 0.0}]}, {"compound": "COc1cccc(C2(O)CCCCC2CN(C)C)c1", "note": "(stereo not shown) [Tramadol HCl, Tramadol hydrochloride]", "values": [{"measurement": "drug release 0.5 h", "value": 15.8}, {"measurement": "drug release 1 h", "value": 23.2}, {"measurement": "drug release 2 h", "value": 32.1}, {"measurement": "drug release 4 h", "value": 43.4}, {"measurement": "drug release 8 h", "value": 56.8}, {"measurement": "drug release 12 h", "value": 68.3}, {"measurement": "drug release 24 h", "value": 89.4}, {"measurement": "drug release 0 h", "value": 0.0}]}]}
